These are literature values, as cited in patent US20070099863A1, “Compounds for the treatment of demyelinating and autoimmune diseases” (priority 2003, published 2007).

Where a name gives a salt, the structure may show the parent alone.

The target in one data set is T1, P2X4 (Homo sapiens, UniProt Q99571).
T1 sequence (Q99571 1-388): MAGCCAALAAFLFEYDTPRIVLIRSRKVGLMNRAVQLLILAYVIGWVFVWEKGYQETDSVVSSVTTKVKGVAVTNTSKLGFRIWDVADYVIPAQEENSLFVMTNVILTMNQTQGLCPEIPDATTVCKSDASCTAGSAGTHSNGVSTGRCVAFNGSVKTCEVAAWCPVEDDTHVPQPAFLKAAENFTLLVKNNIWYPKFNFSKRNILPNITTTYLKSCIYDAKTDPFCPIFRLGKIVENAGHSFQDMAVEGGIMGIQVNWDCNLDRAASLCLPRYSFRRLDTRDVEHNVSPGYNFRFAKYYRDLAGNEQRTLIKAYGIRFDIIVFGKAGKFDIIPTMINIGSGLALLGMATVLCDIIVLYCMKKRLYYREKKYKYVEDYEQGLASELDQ
Conditions: P2X4 subtype; read-out: IC50 in relation to P2X4; cited from earlier work.

A further data set concerns the target P2X5 (Homo sapiens, UniProt Q93086). Conditions: P2X5 subtype; read-out: IC50 in relation to P2X5; cited from earlier work.
For the next data set, the target named is T2, P2X7 (Homo sapiens, UniProt Q99572).
T2 sequence (Q99572 1-595): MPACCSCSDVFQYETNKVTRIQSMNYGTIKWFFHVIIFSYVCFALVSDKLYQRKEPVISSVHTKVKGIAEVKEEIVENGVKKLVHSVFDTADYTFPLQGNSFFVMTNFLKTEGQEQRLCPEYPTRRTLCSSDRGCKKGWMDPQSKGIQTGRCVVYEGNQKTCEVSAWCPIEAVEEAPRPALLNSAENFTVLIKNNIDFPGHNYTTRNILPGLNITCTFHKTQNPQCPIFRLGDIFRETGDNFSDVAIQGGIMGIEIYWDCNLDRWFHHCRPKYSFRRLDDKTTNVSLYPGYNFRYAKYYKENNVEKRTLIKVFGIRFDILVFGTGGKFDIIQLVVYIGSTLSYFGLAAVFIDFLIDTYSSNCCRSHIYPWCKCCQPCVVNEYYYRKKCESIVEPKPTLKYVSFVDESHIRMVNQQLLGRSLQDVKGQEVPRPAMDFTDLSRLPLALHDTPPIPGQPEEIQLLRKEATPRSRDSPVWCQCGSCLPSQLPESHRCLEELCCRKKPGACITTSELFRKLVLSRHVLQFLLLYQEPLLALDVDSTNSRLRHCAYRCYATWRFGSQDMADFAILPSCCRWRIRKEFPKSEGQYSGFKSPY
Conditions: P2X7 subtype; read-out: IC50 in relation to P2X7; cited from earlier work.

P2X5, sequence (Q93086 whole entry, species assumed): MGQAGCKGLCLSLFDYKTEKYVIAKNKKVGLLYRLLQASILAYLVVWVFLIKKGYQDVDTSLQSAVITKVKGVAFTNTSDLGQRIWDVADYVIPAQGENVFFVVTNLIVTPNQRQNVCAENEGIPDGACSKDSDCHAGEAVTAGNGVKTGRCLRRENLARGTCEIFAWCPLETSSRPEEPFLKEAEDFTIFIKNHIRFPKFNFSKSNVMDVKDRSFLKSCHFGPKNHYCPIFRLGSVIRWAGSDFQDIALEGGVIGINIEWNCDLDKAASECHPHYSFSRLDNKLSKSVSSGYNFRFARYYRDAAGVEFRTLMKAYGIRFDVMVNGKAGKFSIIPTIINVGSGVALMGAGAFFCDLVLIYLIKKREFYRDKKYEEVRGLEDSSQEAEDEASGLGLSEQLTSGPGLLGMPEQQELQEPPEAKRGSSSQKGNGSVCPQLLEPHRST

The IC50 is the concentration at which inhibition is half-maximal. Turning to `Cc1ccc(C(=O)Nc2ccc(S(=O)(=O)O)c3cc(S(=O)(=O)O)cc(S(=O)(=O)O)c23)cc1NC(=O)c1cccc(NC(=O)Nc2cccc(C(=O)Nc3cc(C(=O)Nc4ccc(S(=O)(=O)O)c5cc(S(=O)(=O)O)cc(S(=O)(=O)O)c45)ccc3C)c2)c1` [Suramin, hexasodium salt of 8,8′-[carbonylbis[imino-3,1-phenylenecarbonylimino(4-methyl-3,1-phenylene)carbonylimino]]bisnaphthalene-1,3,5-trisulphonic acid], the IC50 at P2X4 is 178 µM; at P2X5 it was 4 µM.

`CCOc1ccc(Nc2ccc(/C(=C3C=C/C(=[N+](/CC)Cc4cccc(S(=O)(=O)[O-])c4)C=C/3C)c3ccc(N(CC)Cc4cccc(S(=O)(=O)O)c4)cc3C)cc2)cc1` [BBG, Coomassie brilliant blue G]: the IC50 at P2X4 is more than 10 µM; on P2X7 it was 10 nM.
